# Test results reported in PubChem BioAssay AID2060908 (Molecular Pharmacology Branch, DTP, NCI, 2025).
# Test system: 186277-243-T-J2-PDC complex spheroids, viability
# Test: Anticancer human tumor 186277-243-T-J2-PDC patient-derived colon adenocarcinoma cell line growth inhibition [RAS]
# Settings: for IC50: curve of first compound; for viability, T/C: stronger effect = lower value
# Text: RAS pathway inhibitors in Combinations in Complex Spheroids
# A high-throughput screen of multi-cell type tumor spheroids was designed to identify active combinations of RAS pathway inhibitors and targeted small molecules. Complex spheroids include a stromal component modeled by human endothelial cells (HUVEC) and fibroblasts modeled by human mesenchymal stem cells (MSCs). The concentration ranges selected for each drug and investigational agent were based upon clinically achievable concentrations if the clinical Cmax of the agent was known.
# Compounds. The drugs and investigational agents: abemaciclib (NSC768073), cobimetinib (NSC768068), divarasib (GDC6063, NSC841802), docetaxel (NSC628503), GDC-1971 (RLY-1971, NSC841576), gemcitabine (NSC613327), inavolisib (NSC800729), ipatasertib (NSC767898), KB-0742 (NSC834161), MRTX-1133 (NSC836407), osimertinib (NSC779217), RMC-4630 (NSC839698), RMC-6236 (NSC851965), RMC-6291 (NSC852671), Ro-3306 (NSC812927), sapanisertib (NSC764658), SN-38 (NSC673596), staurosporine (NSC755774), SY5609 (NSC837396), and tovorafenib (DAY101, NSC766906), were obtained from the National Cancer Institute (NCI) Developmental Therapeutics Program Chemical Repository. The FDA-approved anticancer drug set is available from the NCI Developmental Therapeutics Program. […] The stock solutions were prepared in dimethyl sulfoxide (DMSO, Sigma-Aldrich, St. Louis, MO, cat. D2650) at 800-fold the tested concentration and stored at -70 degrees C prior to their use. All drugs and investigational agents were tested over a range starting from a high concentration at or near the clinical Cmax and decreasing in half-log increments. If the clinical Cmax for an agent had not been determined, the highest concentration tested was 10 microM.
# Cell Culture. All cells were maintained in an incubator at 37 degrees C and 5% CO2 with 95% humidity. The PDC lines were cultured according to standard operating procedures established by the NCI PDMR. All PDCs were thawed and cultured in Matrigel-coated flasks prepared with a working solution of 1X Ham's F-12 nutrient mix, without supplementation (Invitrogen, Waltham, MA, cat. 11765054), 100 U/mL penicillin-streptomycin (Invitrogen, cat. 15140122), and 2.5% Matrigel (Corning Inc., Corning, NY, cat. 354248) for the first three passages. The 362531-283-R-J2-PDC and 782815-120-R-J1-PDC lines were cultured in 6C/Colon 1B media, which includes advanced DMEM/F-12 (Thermo Fisher Scientific, cat. 12634028), 10 mM HEPES (Thermo Fisher Scientific, cat. 15630080), 1X GlutaMAX supplement (Thermo Fisher Scientific, cat. 35050061), 0.1 mg/mL primocin (InvivoGen, San Diego, CA, cat. ant-pm-2), 10% defined fetal bovine serum, heat inactivated (HyClone Laboratories Inc., Logan, UT, cat. SH30070.03HI), 50% L-WRN conditioned media (ATCC, cat. CRL-3276), 1.25 mM N-Acetyl-L-cysteine (Sigma-Aldrich, cat. A9165), 10 mM nicotinamide (Sigma-Aldrich, cat. N0636), 1X B-27 supplement (Thermo Fisher Scientific, cat. 17504044), 1X N-2 supplement (Thermo Fisher Scientific, cat. 17502048), 50 ng/mL human EGF (Thermo Fisher Scientific, cat. PHG0311), and 10 microM Y-27632 dihydrochloride (Tocris Bioscience, cat. 1254). The K12877-001-R-J1-PDC line was cultured in 6I media, which includes all 6C/Colon 1B media plus 10 ng/mL human FGF-10 (PeproTech, cat. 100-26), 1 ng/mL human FGF-2 (PeproTech, cat. 100-18B), 1 µM prostaglandin E2 (Tocris Bioscience, cat. 2296), […] hydrocortisone (Sigma-Aldrich, cat. H4001), and […] bovine insulin (Sigma-Aldrich, cat. I6634). The K86415-001-R-J1-PDC line was cultured in 6D media, which includes all 6C/Colon 1B media components minus the L-WRN conditioned media. The 485176-168-R4-J1-PDC was cultured in PANC media, which includes all 6C/Colon 1B media plus 100 ng/mL human FGF-10 (PeproTech, cat. 100-26), 500 nM SB-431542 (Selleckchem, cat. S1067), and 10 nM gastrin (Tocris Bioscience, cat. 3006). […]
# [1] = second compound 0.0316 µM, first compound 0.0316 µM
# [2] = second compound 0.0316 µM, first compound 0.1 µM
# [3] = second compound 0.1 µM, first compound 0.0316 µM
# [4] = second compound 0.1 µM, first compound 0.1 µM
# [5] = second compound 0.316 µM, first compound 0.0316 µM
# [6] = second compound 0.316 µM, first compound 0.1 µM
# [7] = second compound 1 µM, first compound 0.0316 µM
# [8] = second compound 1 µM, first compound 0.1 µM
# [9] = second compound 3.16 µM, first compound 0.0316 µM
# [10] = second compound 3.16 µM, first compound 0.1 µM
# [11] = second compound 10 µM, first compound 0.0316 µM
# [12] = second compound 10 µM, first compound 0.1 µM
# 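Further: spheroids exposed to compounds for 7 days before viability read.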
smiles,measurement,setting,value
CC(C)NCC(C(=O)N1CCN(c2ncnc3c2C(C)CC3O)CC1)c1ccc(Cl)cc1 (centres undefined) + C#Cc1c(F)ccc2cc(O)cc(-c3ncc4c(N5CC6CCC(C5)N6)nc(OCC56CCCN5CC(F)C6)nc4c3F)c12,IC50,second compound 0.0316 µM,244 nM
same,IC50,second compound 0.1 µM,117 nM
same,IC50,second compound 0.316 µM,< 31.6 nM
same,IC50,second compound 1 µM,< 31.6 nM
same,IC50,second compound 3.16 µM,< 31.6 nM
same,IC50,second compound 10 µM,< 31.6 nM
same,"viability, T/C",[1],74.3%
same,"viability, T/C",[2],76.1%
same,"viability, T/C","second compound 0.0316 µM, first compound 0.316 µM",40.8%
same,"viability, T/C","second compound 0.0316 µM, first compound 1 µM",20.5%
same,"viability, T/C","second compound 0.0316 µM, first compound 3.16 µM",10.6%
same,"viability, T/C","second compound 0.0316 µM, first compound 10 µM",7.17%
same,"viability, T/C",[3],55.4%
same,"viability, T/C",[4],55.4%
same,"viability, T/C","second compound 0.1 µM, first compound 0.316 µM",29.3%
same,"viability, T/C","second compound 0.1 µM, first compound 1 µM",12%
same,"viability, T/C","second compound 0.1 µM, first compound 3.16 µM",6.43%
same,"viability, T/C","second compound 0.1 µM, first compound 10 µM",4.17%
same,"viability, T/C",[5],28.8%
same,"viability, T/C",[6],26.3%
same,"viability, T/C","second compound 0.316 µM, first compound 0.316 µM",13.1%
same,"viability, T/C","second compound 0.316 µM, first compound 1 µM",5.77%
same,"viability, T/C","second compound 0.316 µM, first compound 3.16 µM",3.93%
same,"viability, T/C","second compound 0.316 µM, first compound 10 µM",2.95%
same,"viability, T/C",[7],17.7%
same,"viability, T/C",[8],14.4%
same,"viability, T/C","second compound 1 µM, first compound 0.316 µM",10.1%
same,"viability, T/C","second compound 1 µM, first compound 1 µM",5.25%
same,"viability, T/C","second compound 1 µM, first compound 3.16 µM",4.08%
same,"viability, T/C","second compound 1 µM, first compound 10 µM",2.03%
same,"viability, T/C",[9],12.4%
same,"viability, T/C",[10],11.2%
same,"viability, T/C","second compound 3.16 µM, first compound 0.316 µM",9.1%
same,"viability, T/C","second compound 3.16 µM, first compound 1 µM",3.67%
same,"viability, T/C","second compound 3.16 µM, first compound 3.16 µM",2.83%
same,"viability, T/C","second compound 3.16 µM, first compound 10 µM",2.07%
same,"viability, T/C",[11],8.59%
same,"viability, T/C",[12],9.81%
same,"viability, T/C","second compound 10 µM, first compound 0.316 µM",5.65%
same,"viability, T/C","second compound 10 µM, first compound 1 µM",3.64%
same,"viability, T/C","second compound 10 µM, first compound 3.16 µM",2.9%
same,"viability, T/C","second compound 10 µM, first compound 10 µM",0.94%
CC(C)n1nc(-c2ccc3oc(N)nc3c2)c2c(N)ncnc21 + C#Cc1c(F)ccc2cc(O)cc(-c3ncc4c(N5CC6CCC(C5)N6)nc(OCC56CCCN5CC(F)C6)nc4c3F)c12,IC50,second compound 0.0316 µM,13.7 nM
same,IC50,second compound 0.1 µM,1.83 nM
same,IC50,second compound 0.316 µM,< 0.316 nM
same,IC50,second compound 1 µM,< 0.316 nM
same,IC50,second compound 3.16 µM,< 0.316 nM
same,IC50,second compound 10 µM,< 0.316 nM
same,"viability, T/C","second compound 0.0316 µM, first compound 0.000316 µM",69.1%
same,"viability, T/C","second compound 0.0316 µM, first compound 0.001 µM",90.7%
same,"viability, T/C","second compound 0.0316 µM, first compound 0.00316 µM",58.6%
same,"viability, T/C","second compound 0.0316 µM, first compound 0.01 µM",51.7%
same,"viability, T/C",[1],44.2%
same,"viability, T/C",[2],25.9%
same,"viability, T/C","second compound 0.1 µM, first compound 0.000316 µM",63.1%
same,"viability, T/C","second compound 0.1 µM, first compound 0.001 µM",53.6%
same,"viability, T/C","second compound 0.1 µM, first compound 0.00316 µM",44.3%
same,"viability, T/C","second compound 0.1 µM, first compound 0.01 µM",37.8%
same,"viability, T/C",[3],19.9%
same,"viability, T/C",[4],7.3%
same,"viability, T/C","second compound 0.316 µM, first compound 0.000316 µM",26%
same,"viability, T/C","second compound 0.316 µM, first compound 0.001 µM",28.6%
same,"viability, T/C","second compound 0.316 µM, first compound 0.00316 µM",13.9%
same,"viability, T/C","second compound 0.316 µM, first compound 0.01 µM",12.1%
same,"viability, T/C",[5],7.95%
same,"viability, T/C",[6],3.56%
same,"viability, T/C","second compound 1 µM, first compound 0.000316 µM",18.2%
same,"viability, T/C","second compound 1 µM, first compound 0.001 µM",14.2%
same,"viability, T/C","second compound 1 µM, first compound 0.00316 µM",13.9%
same,"viability, T/C","second compound 1 µM, first compound 0.01 µM",6.42%
same,"viability, T/C",[7],5.57%
same,"viability, T/C",[8],2.65%
same,"viability, T/C","second compound 3.16 µM, first compound 0.000316 µM",13.7%
same,"viability, T/C","second compound 3.16 µM, first compound 0.001 µM",11.4%
same,"viability, T/C","second compound 3.16 µM, first compound 0.00316 µM",7.28%
same,"viability, T/C","second compound 3.16 µM, first compound 0.01 µM",4.66%
same,"viability, T/C",[9],4.51%
same,"viability, T/C",[10],2.8%
same,"viability, T/C","second compound 10 µM, first compound 0.000316 µM",9.87%
same,"viability, T/C","second compound 10 µM, first compound 0.001 µM",6.96%
same,"viability, T/C","second compound 10 µM, first compound 0.00316 µM",8.48%
same,"viability, T/C","second compound 10 µM, first compound 0.01 µM",4.45%
same,"viability, T/C",[11],3.9%
same,"viability, T/C",[12],1.75%
